Test results published in patent US12318488B2, “Solid dosage form production” (University of Central Lancashire, priority 2018, dated 2025).

Columns and labels:
Assay type in all cases: physicochemical
[1] = Drug content analysis via HPLC of extruded filaments and 3D printed tablets; conditions: percentage recovery of the active ingredient
Procedure: Filaments were prepared with the target concentration of components as detailed in Table III. 10 g of the dry ingredients (% weights according to Table III) was blended with 2 g of distilled non-ionised water (temporary plasticiser) using a mortar and pestle. The resulting blends were fed to a hot melt extruder at 90° C. and mixed at 100 rpm. A Thermo Scientific HAAKE MiniCTW hot melt extruder (Karlsruhe, Germany) was used to prepare the filaments. The filaments were dried for 1 hour at 100° C. in a drying and heating chamber (Binder Inc., series ED, Tuttinglen, Germany) and then used in 3D printing using the methodology described in Example 2 (i.e., nozzle temperature of 150° C.).
A HPLC method was developed and validated in order to assess the assay of the active substances in the extruded filaments and the 3D printed tablets. Each sample was accurately weighed (approximately 5 mg) and placed in a 1000 ml volumetric flask and dissolved in a mixture of water:acetonitrile:methanol (80:10:10). The solutions were then filtered through an Econofltr 0.2 μm syringe (Agilent Technologies Ltd., Cheadle, UK) and analysed by HPLC.
Lisinopril dihydrate, indapamide, rosuvastatin calcium and amlodipine content was assessed using Agilent UV-HPLC 1260 series (Agilent Technologies, Germany) equipped with a synergy max column (250×4.6 mm, 4 μm particle size), at temperature of 50° C. The analysis was carried out at 210 nm wavelength, flow rate 1 mL/min, injection volume was 100 μl and run time of 35 minutes. The mobile phase consisted of acetonitrile (A) and buffer pH3 (B) (which was prepared by adjustment of the pH of distilled water with phosphoric acid) according to the gradient in Table IV. Drug assay of the multi-layer polypill I (prepared from the uni-matrix) was assessed based on the assumption that each layer corresponds to an equal part of the tablet.

[2] = HPLC analysis of API content in filaments and 3D printed tablets after hot melt extrusion and FDM 3D printing; conditions: for Residual Percentage (potency of drug following HME): Filament; for Residual Percentage (potency of drug following HME and FDM 3D printing): Tablets
Procedure: Filaments containing individual drugs at different concentration were produced to achieve the individual target dose of each model drug. A Thermo Scientific HAAKE MiniCTW hot melt extruder (Karlsruhe, Germany) was used to prepare the filaments. Blank (drug-free) and individual drug loaded filaments were prepared by blending 10 g of dry ingredients (composition according to Table I) with additional 2 g of distilled water (temporary plasticiser) (Table 1) using mortar and pestle. This blend mixture was then fed to the hot melt extruder at 90° C. and mixed at 100 rpm, nozzle size of 1.5 mm. The filaments were extruded at the same temperature at 35 rpm. The extruded filaments were dried at 100° C. at 0% RH for 1 hour in a FD240 Binder heating chamber (Tuttlingen, Germany). For comparison purposes, a filament was also extruded without water at an extrusion temperature of 180° C. and a mixing rate of 100 rpm.
The tablets printed were designed using Autodesk® 3ds Max Design 2016 software version 18.0 (Autodesk, Inc., USA). The designs were then imported to the computer software in stereolithographic (STL) format. The extruded filaments were printed by a Makerbot 2×3D printer (Makerbot Industries, NY, USA) fitted with 0.4 mm nozzle and controlled by Simplify 3D software version 4.0 (Cincinnati, OH, USA). Printing took place using nozzle and building plate temperatures of 150 and 40° C. respectively. The tablets were printed following a concentric fill pattern and 100% infill with a layer thickness of 166 μm. For comparison reasons, tablets (without addition of water) were printed following the same settings as above but at nozzle temperature of 210° C.
The HPLC analysis was performed using Agilent 1260 series UV-HPLC (Agilent Technologies, Germany) equipped with a Synergi Polar column (250×4.6 mm, 4 μm particle size) (Phenomenex, Macclesfield, UK) at 35° C. The analysis was carried out at a detection wavelength of 254 nm, flow rate of 1 mL/min, injection volume of 100 μL and a 4 minute run time. The mobile phase consisted of a 1:1 mixture of solvent A (acetonitrile) and solvent B (water).
For theophylline, the same UV-HPLC system and column were used as detailed above for hydrocortisone. The mobile phase constituted of 10 mM solution of ammonium acetate buffer, methanol and acetonitrile (86:7:7). Analysis was carried out at a wavelength of 272 nm, temperature of 40° C., flow rate of 1 ml/min, injection volume of 5 μL and a run time of 7 min.
In order to examine the effect of hot melt extrusion (HME) and FDM 3D printing on the integrity of the active pharmaceutical ingredient (API), API-loaded filaments were analysed for API content post drying as well as in the 3D printed tablets. Samples (API loaded filaments or tablets) were accurately weighed and placed in 250 mL of 1:1 water:acetonitrile mixture for 2 hour under sonication. The solutions were filtered through 0.22 μm Millex-GP syringe filters (Merck Millipore, USA) and prepared for HPLC analysis.

[3] = HPLC analysis of hydrocortisone content in extruded filament and FDM 3D printed tablet at different drug loadings; conditions: for Drug potency in filament average ± SD (n = 3): Eudragit EPO filament, HME 90° C.; for Drug potency in FDM 3D printed average ± SD (n = 3): nozzle 135° C.
Procedure: Filaments were compounded according to the formulation in Table VIII using Thermo Fisher Haake MiniCTW compounder. The extruder speed was set at 35 rpm and temperature at 90° C.
Tablets were constructed with the pre-prepared filaments using a commercial FDM 3D printer equipped with 0.4 mm nozzle size. The templates used to print the tablets were designed in a caplet shape using Autodeski 3ds Maxi Design 2012 software version 14.0 (Autodesk, Inc., USA). The design was saved in a stereo-lithography (.stl) file format and was imported to the 3D software, MakerWare Version 3.9.1.1143 (Makerbot Industries, LLC., USA). Tablets were printed using modified settings of the software for PLA: as follows: type of printer: Replicator 2×; resolution: standard; speed of extruder 90 mm/s while extruding and 150 mm/s while traveling; infill: 100%; height of the layer: […]. No supports or rafts were utilized. The temperatures for the nozzle and build plate of the 3D printer were 135° C. and 60° C. respectively. Blue Scotch painter's tape was applied to the build platform to facilitate the adherence of the printed object during FDM 3D printing.
• Hydrocortisone content was assessed using HPLC using the following conditions: • Mobile phase: water:acetonitrile 1:1. • Stationary phase: Phenomenex® column Synergi Polar RP column with particle size 4 μm with 80 Å • pores, length of 250 mm • Column temperature: 35° C. • Injection Volume: 10 μL. • Flow rate: 1 mL/min • Detection: UV, 254 nm
The blend powder, the extruded filament or the printed tablet were placed into a 500 mL volumetric flask along with HCl. The flasks were sonicated for 30 minutes, followed by allowing the solutions to cool back to room temperature (approximately 30 minutes). A 10 mL syringe was filled with the resulting solution. A filter was added to the syringe; the first 5 mL was discarded, the second 5 mL used to fill a HPLC vial.

[4] = 3D printed at nozzle temperature 150° C.
[5] = HME 90° C., dried 1 hour at 100° C.
[6] = no temporary plasticiser, 180° C. for HME
[7] = temporary plasticiser (water), 90° C. for HME
[8] = no temporary plasticiser, 180° C. for HME followed by 210° C. for 3D-printing
[9] = temporary plasticiser, 90° C. for HME followed by 150° C. for 3D-printing
[10] = 3D printed at nozzle temperature 150° C., in %
[11] = HME 90° C., dried 1 hour at 100° C., in %

## CCOC(=O)C1=C(COCCN)NC(C)=C(C(=O)OC)C1c1ccccc1Cl (centres unmarked) [Amlodipine besylate, amlodipine besylate]
[1]; [4]
  Drug contents in tablets, Amlodipine: 90.68 ± 2.28
[1]; [5]
  Drug contents in filament, Amlodipine: 97.89 ± 1.94

## C[C@]12CCC(=O)C=C1CC[C@@H]1[C@@H]2[C@@H](O)C[C@@]2(C)[C@H]1CC[C@]2(O)C(=O)CO [Hydrocortisone]
[2]; [6]
  Residual Percentage (potency of drug following HME): 19.98%
[2]; no temporary plasticiser, 180° C. for HME, listed as hydrocortisone
  Residual Percentage (potency of drug following HME): 20%
[2]; [7]
  Residual Percentage (potency of drug following HME): 100.9%
[2]; temporary plasticiser (water), 90° C. for HME, listed as hydrocortisone
  Residual Percentage (potency of drug following HME): 100%
[2]; [8]
  Residual Percentage (potency of drug following HME and FDM 3D printing): 3.02%
[2]; no temporary plasticiser, 180° C. for HME followed by 210° C. for 3D-printing, listed as hydrocortisone
  Residual Percentage (potency of drug following HME and FDM 3D printing): 3.02%
[2]; [9]
  Residual Percentage (potency of drug following HME and FDM 3D printing): 48.6%
[2]; temporary plasticiser, 90° C. for HME followed by 150° C. for 3D-printing, listed as hydrocortisone
  Residual Percentage (potency of drug following HME and FDM 3D printing): 48.6%
[3]; Drug Concentration 1%
  Drug potency in filament average ± SD (n = 3): 85.97 ± 0.14%
  Drug potency in FDM 3D printed average ± SD (n = 3): 75.13 ± 0.62%
[3]; Drug Concentration 5%
  Drug potency in filament average ± SD (n = 3): 92.25 ± 0.21%
  Drug potency in FDM 3D printed average ± SD (n = 3): 95.4 ± 4.3%
[3]; Drug Concentration 10%
  Drug potency in filament average ± SD (n = 3): 99 ± 0.34%
  Drug potency in FDM 3D printed average ± SD (n = 3): 98.2 ± 0.45%

## CC1Cc2ccccc2N1NC(=O)c1ccc(Cl)c(S(N)(=O)=O)c1 (centres unmarked) [Indapamide, indapamide]
[1]; [10]
  Drug contents in tablets, Indapamide: 96.06 ± 2.06
[1]; [11]
  Drug contents in filament, Indapamide: 93.32 ± 1.67

## NCCCC[C@H](N[C@@H](CCc1ccccc1)C(=O)O)C(=O)N1CCC[C@H]1C(=O)O [Lisinopril dihydrate]
[1]; [4]
  Drug contents in tablets, Lisinopril: 87.8 ± 1.5
[1]; [5]
  Drug contents in filament, Lisinopril: 93.9 ± 1.66

## CC(C)c1nc(N(C)S(C)(=O)=O)nc(-c2ccc(F)cc2)c1/C=C/[C@@H](O)C[C@@H](O)CC(=O)[O-].CC(C)c1nc(N(C)S(C)(=O)=O)nc(-c2ccc(F)cc2)c1/C=C/[C@@H](O)C[C@@H](O)CC(=O)[O-].[Ca+2] [Rosuvastatin calcium, rosuvastatin calcium]
[1]; [10]
  Drug contents in tablets, Rosuvastatin: 95.4 ± 2.37
[1]; [11]
  Drug contents in filament, Rosuvastatin: 98.2 ± 1.09

## Cn1c(=O)c2[nH]cnc2n(C)c1=O [Theophylline]
[2]; [6]
  Residual Percentage (potency of drug following HME): 100.61%
[2]; [7]
  Residual Percentage (potency of drug following HME): 100%
[2]; [8]
  Residual Percentage (potency of drug following HME and FDM 3D printing): 100.53%
[2]; [9]
  Residual Percentage (potency of drug following HME and FDM 3D printing): 100.2%
